From patent US20150126603A1, “TREATMENT OF POULTRY, PIGS OR FISH FOR REDUCING THE FEED CONVERSION RATIO OR INCREASING THEIR BODYWEIGHT GAIN” (TAMINCO, priority 2012, published 2015)
Where two headings read alike, the source gives them in different places.

How the values were obtained:
Ross 308 chickens = system: Ross 308 chickens
Protocol: A group of 252 Ross 308 chickens were randomly distributed over 14 pens with 18 animals each. All chickens were previously housed in identical conditions, and fed the same diet as the control group in the trial. Every other pen was attributed to either a control diet or that control diet supplemented with 500 mg β-alanine per kg (=595 mg or 6.7 mmol β-alanine per kg dry weight). Water was freely available from drinking cups, and animals were fed ad libitum. The control diet was a commercial broiler diet (Vanden Avenne, Braadkip 114 MB) with 4% corn oil added to increase the level of oxidative stress, as used in earlier studies (Kalmar et al., 2011).
From the age of 24 days to the age of 48 days, the change in bodyweight was measured per bird, but pooled per pen as the experimental unit. At 42 days of age, one male bird per pen was euthanized by intravenous injection of sodium pentobarbital. From the breast and thigh muscle, a sample was dissected and stored airtight at −20° C. until analysis. The breast muscle sample was taken at about one third from the distal end of the breast.

carps = system: carps
Protocol: A group of 24 carps were distributed over 12 aquaria with 2 fish each. All fish were previously housed in identical conditions, and fed the same diet as the control group in the trial. Every other aquarium was attributed to either a control diet or that control diet supplemented with 500 mg β-alanine per kg. Feeding was done at 1.5% of the body weight, during 2 feeding times/day. To increase the level of oxidative stress, the carps were kept at 27° C. (4° C. above the advised temperature).
The change in bodyweight after the 14 day feeding experiment was measured per fish, but pooled per aquarium as the experimental unit.

pigs [1] = system: pigs
Protocol: At 9 weeks of age, 48 pigs (24 gilts and 24 chirurgical castrated barrows) were divided randomly into groups of four pigs of the same gender. Each group was housed in a separate pen resulting in six pens of four gilts and six pens of four barrows. All pigs were fed the same commercial diet and for three of the six pens of gilts and three of the six pens of barrows their diet was supplemented with 500 mg β-alanine per kg (=568 mg or 6.4 mmol β-alanine per kg dry weight). Water was freely available and the animals were fed ad libitum. After 6 weeks (age of 15 weeks) all animals were euthanized by natrium-pentobarbital.

chickens = details: 22 mmol/kg bodyweight orally twice a day for five days; cited from earlier work
broiler chickens [2] = details: cited from earlier work
pigs [3] = details: cited from earlier work
Japanese flounders = details: 8.9 g/kg of β-alanine in diet; cited from earlier work
broiler chickens [4] = details: 0.5% of carnosine in broiler feed; cited from earlier work
[5] = 500 mg/kg beta-alanine in diet, between 24 and 42 days of age
[6] = 500 mg/kg beta-alanine in diet, 14 days
[7] = 500 mg/kg beta-alanine in diet, 14 days, 27° C.
[8] = 0.5% of β-alanine in feed for 4 weeks
[9] = 1 and 2% of β-alanine in feed for 4 weeks
[10] = 0.225% of β-alanine in pig diet
[11] = β-alanine in combination with histidine

Q: With `NCCC(=O)O` [Beta-alanine, β-alanine] as the molecule, how does the Average daily gain (Ross 308 chickens; [5]) read?
A: 108 g

Q: And the Final bodyweight (Ross 308 chickens; [5])?
A: 2.874 kg

Q: And the “bodyweight at slaughter vs control” value (Ross 308 chickens; 500 mg/kg β-alanine in diet)?
A: tended to have a higher bodyweight at slaughter

Q: And the “bodyweight gain vs control” value (Ross 308 chickens; 500 mg/kg β-alanine in diet)?
A: tended to have a higher bodyweight gain

Q: What about the Initial bodyweight (Ross 308 chickens; baseline at 24 days of age, 500 mg/kg group) of the same molecule?
A: 1.362 kg

Q: What about the Average feed intake (carps; [6]) of the same molecule?
A: 44.1 g

Q: What about the feed conversion ratio (carps; [6]) of the same molecule?
A: 2.7 g:g

Q: And the Average weight gain (carps; [7])?
A: 19.0 g

Q: What about the Final bodyweight (carps; [7]) of the same molecule?
A: 230.1 g

Q: What about the Initial bodyweight (carps; baseline, 500 mg/kg group) of the same molecule?
A: 211.1 g

Q: And the “Bodyweight gain over 6 weeks” value (pigs [1]; 500 mg/kg beta-alanine in diet, 9 to 15 weeks of age)?
A: 25.4

Q: And the Final bodyweight (pigs [1]; 500 mg/kg beta-alanine in diet, 15 weeks of age)?
A: 44.1 kg

Q: What about the “bodyweight at slaughter vs control” value (pigs [1]; 500 mg/kg β-alanine in diet) of the same molecule?
A: tend to have a higher bodyweight at slaughter

Q: And the “bodyweight gain vs control” value (pigs [1]; 500 mg/kg β-alanine in diet)?
A: tended to have a higher bodyweight gain

Q: And the “overall growth of the piglets” value (pigs [1]; 500 mg/kg β-alanine in diet)?
A: increases the overall growth

Q: What about the “death or illness during the trial” value (pigs [1]; 500 mg/kg β-alanine in diet, 6 weeks) of the same molecule?
A: No animals died or became ill

Q: What about the Initial bodyweight (pigs [1]; baseline at 9 weeks of age, 500 mg/kg group) of the same molecule?
A: 18.7 kg

Q: What about the bodyweight gain (chickens) of the same molecule?
A: also decreased

Q: What about the feed consumption (chickens) of the same molecule?
A: also decreased

Q: And the feed conversion ratio (chickens)?
A: decreased

Q: And the bodyweight gain (broiler chickens [2]; [8])?
A: no significant changes

Q: And the feed conversion ratio (broiler chickens [2]; [8])?
A: no significant changes

Q: And the bodyweight gain (broiler chickens [2]; [9])?
A: decreased significantly

Q: What about the feed conversion ratio (broiler chickens [2]; [9]) of the same molecule?
A: increased

Q: And the bodyweight gain (pigs [3]; [10])?
A: decreased somewhat

Q: What about the feed conversion ratio (pigs [3]; [10]) of the same molecule?
A: decreased somewhat

Q: What about the bodyweight gain (pigs [3]; [11]) of the same molecule?
A: decreased even more

Q: What about the feed conversion ratio (pigs [3]; [11]) of the same molecule?
A: increased to become higher than the control

Q: And the bodyweight gain (Japanese flounders)?
A: increased somewhat but not significantly

Q: And the feed conversion ratio (Japanese flounders)?
A: increased significantly

Q: What does the source list for `NCCC(=O)N[C@@H](Cc1c[nH]cn1)C(=O)O` [carnosine, β-alanyl-L-histidine]?
A: chicken meat quantity and quality (broiler chickens [4]): improve; feed conversion ratio (broiler chickens [4]): improved but not statistically significantly; weight gain (broiler chickens [4]): improved but not statistically significantly
